Experimental data from US20240345082A1, “IDENTIFICATION AND APPLICATION OF SELECTIVE CELL SURFACE MARKERS AND ADDITIONAL METHODS FOR HUMAN RED/GREEN CONE PHOTORECEPTOR PRECURSOR ENRICHMENT” (Wisconsin Alumni Research Foundation, priority 2023, published 2024).

How the values were obtained:
CPP microaggregates [1] = test: Flow cytometric quantification of THRB2:tdTomato-positive red/green CPP cells in CPP microaggregates; assay type: cell-based, human; settings: CPP microaggregate formation combined with MMC treatment (250 ng/ml), 10 days post microaggregate formation; increased from 17% (unsorted CRR ROs at D60)
CPP microaggregates [2] = test: Ki-67 immunostaining (IHC) of MMC-treated ALCAM/CD166-sorted CPP microaggregates; settings: for Ki-67 positive cells in CPP microaggregates: 7 dpt

## CO[C@@]12[C@H](COC(N)=O)C3=C(C(=O)C(C)=C(N)C3=O)N1C[C@@H]1N[C@@H]12 [MMC, mitomycin C]
CPP microaggregates [1]
  percentage of THRB2:tdTomato-positive red/green CPP cells: 89.5%
CPP microaggregates [2]; 100 ng/mL MMC
  Ki-67 positive cells in CPP microaggregates: few
CPP microaggregates [2]; 250 ng/mL MMC
  Ki-67 positive cells in CPP microaggregates: almost nil
CPP microaggregates [2]; 500 ng/mL MMC
  morphology of CPP microaggregates: noticeable disruption
  Ki-67 positive cells in CPP microaggregates: almost nil
